Reference: patent US11904042B2, “Hair coloring composition and methods for its application and removal” (HFC Prestige International Holding Switzerland S.a.r.l, priority 2018, dated 2024)

Columns and labels:
Conditions in all cases: after 15 washes
[1] = Example 2B: azo dye in multicomponent kit (isocyanate / OH silicone), color result and wash fastness
Protocol: (§1) Pretreatment to Apply Cationic Polymer (PEI, Polyethylenimine) on the Hair Fiber Surface: • 1 ml of PEI solution (0.5% aqueous solution of PEI (MW: 75 kDa) is applied on the hair strand. • The hair strand is dried via blow-dryer, followed by further drying at 40° C. in the oven.
100 mg azo dye are mixed with 300 mg isocyanate polymer (Silmer NCO DI50); 9.4 g 2,2,4,6,6-pentamethylheptane are added and the mixture is well shaked.
Subsequently, 200 mg OH Silicone (Silmer OHT C-50) are added to the reaction mixture. The mixture is stirred at room temperature for 5 min.
(§2) 1 g of the above prepared formulation is applied on a pre-treated hair tress (as described above) and the polymers are allowed to react to start forming a film immobilizing the added dye. After removing the excess of the formulation, the film forming reaction is completed as the hair tress is dried via a heat blower.

[2] = Example 2A: azo dye in multicomponent kit (Michael addition), color result and wash fastness
Protocol: as §1
100 mg azo dye is suspended in 1 g THF, and 8.4 g Isododecane (2,2,4,6,6-pentamethylheptane) solution are added as solvent. Subsequently, 200 mg Silmer OH ACR DI-10 polymer (acrylate derivative) and 300 mg Silamine 2972 is added to the reaction mixture. The mixture is stirred at room temperature for 5 min.
as §2

[3] = Example 2C: azo dye in multicomponent kit (silicone & carbon-hybrid system), color result and wash fastness
Protocol: as §1
100 mg azo dye are mixed with 400 mg isocyanate polymer (Melio 09-S-11); 9.3 g 1-Methoxy-2-propanol are added and the mixture is well shaked.
Subsequently, 200 mg OH Silicone (Silmer OHT C-50) are added to the reaction mixture. The mixture is stirred at room temperature for 5 min. 1 g of the above prepared formulation is applied on a pre-treated hair tress (as described above) and the polymers are allowed to react to start forming a film immobilizing the added dye. After removing the excess of the formulation, the film forming reaction is completed as the hair tress is dried via a heat blower.

For CCN(CCO)c1ccc(/N=N/c2nc(Cl)c(C=C3C(=O)c4ccccc4C3=O)s2)cc1 [blue azo, 2-{[4-chloro-2-((E)-{4-[ethyl(2-hydroxyethyl)amino]phenyl}diazenyl)-1,3-thiazol-5-yl]methylidene}-1H-indene-1,3(2H)-dione], the “color remains to an extent of” value [1] was 90%, the “color remains to an extent of” value [2] was 80% and the “color remains to an extent of” value [3] was 80%.
In the case of CCN(CCO)c1ccc(/N=N/c2nc(N3CCN(C)CC3)c(C=C3C(=O)c4ccccc4C3=O)s2)cc1 [black azo, 2-[[2-[(E)-[4-[ethyl(2-hydroxyethyl)amino]phenyl]azo]-4-(4-methylpiperazin-1-yl)thiazol-5-yl]methylene]indane-1,3-dione], the “color remains to an extent of” value [1] is reported as 50%, the “color remains to an extent of” value [2] is reported as 30% and the “color remains to an extent of” value [3] is reported as 80%.
